Values of other authors, collected in US11654154B2, “Process for preparing injectable Fosaprepitant Dimeglumine compositions having improved storage stability” (Navinta III Inc, priority 2019, dated 2023).
Entries after “also recorded” stand apart in the source; their conditions may differ.

How the values were obtained:
[1] = for Solubility in water / aqueous solution (in words): water or aqueous solution
[2] = system: chemotherapy induced nausea and vomiting (CINV); conditions: added to standard regimen of ondansetron and dexamethasone; highly emetogenic cisplatin-based chemotherapy

SMILES | Solubility in water ([1]; water) | Solubility in water / aqueous solution (in words) [1] | Protection against CINV [2]
C[C@@H](O[C@H]1OCCN(Cc2nc(O)n(P(=O)(O)O)n2)[C@H]1c1ccc(F)cc1)c1cc(C(F)(F)F)cc(C(F)(F)F)c1 [Fosaprepitant] | about 300 mg/mL | good solubility | –
C[C@@H](O[C@H]1OCCN(Cc2n[nH]c(=O)[nH]2)[C@H]1c1ccc(F)cc1)c1cc(C(F)(F)F)cc(C(F)(F)F)c1 [Aprepitant] | – | limited solubility; also recorded: minimal solubility | consistently superior protection
